Test system: not listed separately
Assay: Selectivity index, ratio of LC50 for Artemia salina larvae to IC50 for Trypanosoma brucei brucei 427 bloodstream form
Conditions: not given; call rule not given here

Row | SMILES | Ratio LC50/IC50
1 | C/C(=N/NC(N)=S)c1ccc2ccccc2c1 [ACETONAPHTHONE-THIOSEMICARBAZONE] | 50
2 | C/C(=N/NC(=S)Nc1ccccc1)c1ccc(Br)cc1 | 25.9
3 | C/C(=N/NC(=S)Nc1ccccc1)c1ccc(Cl)cc1 | 110
4 | C/C(=N/N=C(\N)S)C12CC3CC(CC(C3)C1)C2 | 14.2

Test system: not listed separately
Assay: Toxicity against Artemia salina (brine shrimp) larvae assessed as mortality after 24 hr
Assay type: organism-based
Conditions: in vivo

Row | SMILES | LC50 at 24 h
5 | C/C(=N/NC(N)=S)c1ccc2ccccc2c1 [ACETONAPHTHONE-THIOSEMICARBAZONE] | 481 µM
6 | C/C(=N/NC(=S)Nc1ccccc1)c1ccc(Br)cc1 | 134 µM
7 | C/C(=N/NC(=S)Nc1ccccc1)c1ccc(Cl)cc1 | 438 µM
8 | C/C(=N/N=C(\N)S)C12CC3CC(CC(C3)C1)C2 | 119 µM

Test system: Trypanosoma brucei brucei
Assay: Trypanocidal activity against Trypanosoma brucei brucei 427 bloodstream form assessed as inhibition of parasite proliferation after 72 hr by Lilit Alamar Blue method
Assay type: functional, organism-based
Conditions: not given

Row | SMILES | IC50
9 | COc1cc(/C(C)=N\NC(N)=S)cc(OC)c1OC | Not Active
10 | C/C(=N/NC(=S)Nc1ccccc1)c1ccc2ccccc2c1 | ND(Insoluble)
11 | COc1ccc(/C(C)=N\NC(N)=S)cc1OC | Not Active

Same assay, conditions: Trypanosoma brucei, 427, 72 h; read-out: IC50

Row | SMILES | IC50
12 | NC(=S)NN=C(c1ccccc1)c1ccccc1 [BENZOPHENONE-THIOSEMICARBAZONE] | 68.3 µM
13 | C/C(=N/NC(N)=S)c1ccc2ccccc2c1 [ACETONAPHTHONE-THIOSEMICARBAZONE] | 9.62 µM
14 | CN(C)c1ccc(/C=C/C=N\NC(N)=S)cc1 | 17.7 µM
15 | C/C(=N/NC(N)=S)c1ccccc1Cl | 199 µM
16 | NC(=S)N/N=C\c1cccc(Br)c1 | 136 µM
17 | NC(S)=NN=C(Cc1ccccc1)Cc1ccccc1 | 147 µM
18 | COc1ccc(/C=N\NC(N)=S)cc1 | 259 µM
19 | C/C(=N/NC(=S)Nc1ccccc1)c1ccc(Br)cc1 | 5.19 µM
20 | C=C(C)C1CC=C(C)/C(=N/NC(N)=S)C1 (stereo not drawn) [CARVONE-THIOSEMICARBAZONE] | 39.7 µM
21 | C/C(=N/NC(N)=S)c1ccc(Br)cc1 | 26.9 µM
22 | NC(=S)N/N=C\CCc1ccccc1 | 260 µM
23 | NC(=S)N/N=C\c1cccc(Cl)c1 | 164 µM
24 | CC/C(=N/NC(N)=S)c1ccc(OC)cc1 | 132 µM
25 | Cc1ccccc1/C=N\NC(N)=S | 222 µM
26 | C/C(=N/NC(=S)Nc1ccccc1)c1ccc(Cl)cc1 | 3.97 µM
27 | C/C(=N/NC(N)=S)c1cccc(Br)c1 | 70.4 µM
28 | COc1ccc(/C(C)=N\NC(N)=S)cc1 | 91.1 µM
29 | NC(=S)N/N=C\C=C\c1ccccc1 | 76.3 µM
30 | NC(=S)N/N=C\c1cc(Cl)ccc1O | 45.6 µM
31 | C/C(=N/N=C(\N)S)c1ccc(Cl)cc1 [P-CHLOROPHENYL(METHYL)THIOSEMICARBAZONE] | 11.1 µM
32 | Cc1ccc(/C=N\NC(N)=S)cc1 | 124 µM
33 | C/C(=N/NC(N)=S)c1ccccc1 [ACETOPHENONE-THIOSEMICARBAZONE] | 212 µM
34 | NC(=S)N/N=C\c1ccccc1Cl | 220 µM
35 | NC(=S)N/N=C\c1ccccc1O | 170 µM
36 | C/C(=N/N=C(\N)S)C12CC3CC(CC(C3)C1)C2 | 8.38 µM
37 | NC(=S)N/N=C\c1ccc(Cl)cc1 | 82.6 µM
38 | NC(=S)N/N=C\c1ccccc1 [BENZALDEHYDE-THIOSEMICARBAZONE] | 444 µM
